According to patent US9012678B2, “Processes for the preparation of fesoterodine” (Cadila Healthcare Limited, priority 2010, dated 2015):

What was measured:
[1] = Particle Size Distribution (PSD) by laser diffraction in a Malvern Master Sizer; assay type: physicochemical
Description: Particle Size Distribution (PSD)” is determined by laser diffraction in a Malvern Master Sizer by using known method.

[2] = Stability study for Fesoterodine Fumarate (description, water by KF, related substances by HPLC on storage); assay type: physicochemical
Description: As used herein, the term “stable fesoterodine fumarate” fesoterodine fumarate containing any individual impurities less than 0.15% after exposure to a relative humidity of 60% at 25° for a period of at least three months or after exposure to a relative humidity of 75% at 40° for a period of at least three months
2) High Performance Liquid Chromatography (HPLC) Method for Determination of Impurity X in Fesoterodine Fumarate of formula (1)
• Equipment: Shimadzu LC2010C HPLC system equipped with a wavelength UV-VIS detector or equivalent. • Column: Inertsil ODS-3 (250 mm×4.6 mm, 5 μm), Make: GL Sciences Part No: 5020-01732 • Flow rate: 1.2 mL/minute • Column oven temp: 30° C. • Wavelength: 220 nm • Injection volume: 10 μL • Run time: 60 minutes • Diluent: Premixed buffer and acetonitrile in the volume ratio of 75:25. Preparation of Buffer:
Transfer 1 mL orthophosphoric acid in 1000 mL volumetric flask containing about 500 mL of water and make up the volume with water. Filter through 0.2 μm membrane filter paper.
Weigh accurately and transfer about 25 mg of sample of Fesoterodine Fumarate or Fesoterodine Fumarate (technical) into a 50 mL volumetric flask. Add 5 mL tetrahydrofuran, sonicate to dissolve and make up the volume with diluent. Make fresh two preparations at the time of injection.
Inject sample solutions containing the chromatogram upto the end of gradient. Determine the area of each impurity using suitable integrator.

[3] = 1 Month 2 to 8° C., PSD: D(90) = 10 microns
[4] = 1 Month 2 to 8° C., PSD: D(90) = 270 microns
[5] = 1 Month 25° C. ± 2° C./RH 60% ± 5%, PSD: D(90) = 10 microns
[6] = 1 Month 25° C. ± 2° C./RH 60% ± 5%, PSD: D(90) = 270 microns
[7] = 1 Month 40° C. ± 2° C./RH 75% ± 5%, PSD: D(90) = 10 microns
[8] = 1 Month 40° C. ± 2° C./RH 75% ± 5%, PSD: D(90) = 270 microns
[9] = 2 Months 2 to 8° C., PSD: D(90) = 10 microns
[10] = 2 Months 2 to 8° C., PSD: D(90) = 270 microns
[11] = 2 Months 25° C. ± 2° C./RH 60% ± 5%, PSD: D(90) = 270 microns
[12] = 2 Months 25° C. ± 2° C./RH, PSD: D(90) = 10 microns
[13] = 2 Months 40° C. ± 2° C./RH 75% ± 5%, PSD: D(90) = 10 microns
[14] = 2 Months 40° C. ± 2° C./RH 75% ± 5%, PSD: D(90) = 270 microns
[15] = 3 Months 2 to 8° C., PSD: D(90) = 10 microns
[16] = 3 Months 2 to 8° C., PSD: D(90) = 270 microns
[17] = 3 Months 25° C. ± 2° C./RH 60% ± 5%, PSD: D(90) = 10 microns
[18] = 3 Months 25° C. ± 2° C./RH 60% ± 5%, PSD: D(90) = 270 microns
[19] = 3 Months 40° C. ± 2° C./RH 75% ± 5%, PSD: D(90) = 10 microns
[20] = 3 Months 40° C. ± 2° C./RH 75% ± 5%, PSD: D(90) = 270 microns
[21] = Initial, PSD: D(90) = 10 microns
[22] = Initial, PSD: D(90) = 270 microns

## CC(C)C(=O)Oc1ccc(CO)cc1[C@H](CCN(C(C)C)C(C)C)c1ccccc1.O=C(O)/C=C/C(=O)O [Fesoterodine Fumarate, isobutyric acid 2-[(R)-3-diisopropylammonium-1-phenylpropyl)-4-(hydroxy-methyl)phenyl ester hydrogen fumarate]
[1]; batch from IPA/diisopropyl ether, D(90) less than 200 microns
  PSD: D(90): PSD: D(90) = 10 microns
[1]; batch of Example 16 (methyl ethyl ketone/cyclohexane, seeded), D(90) higher than 200 microns
  PSD: D(90): PSD: D(90) = 270 microns
[2]; [3]
  Description: White
  Related substance (by HPLC) i) Diol: 0.06 % w/w
  Related substance (by HPLC) ii) Diester: 0.03 % w/w
  Related substance (by HPLC) iii) Oxidized (RRT 1.37): 0.09 % w/w
  Related substance (by HPLC) iv) Any individual impurities: 0.03 % w/w
  Related substance (by HPLC) v) Total impurities: 0.21 % w/w
  Water by KF: 0.16 % w/w
[2]; [4]
  Description: White
  Related substance i) Diol: 0.05%
  Related substance ii) Diester: BQL
  Related substance iii) Oxidized (RRT 1.37): BQL
  Related substance iv) Any individual impurities: BQL
  Related substance v) Total impurities: 0.05%
  Water by KF: 0.16 % w/w
[2]; [5]
  Description: White
  Related substance (by HPLC) i) Diol: 0.09 % w/w
  Related substance (by HPLC) ii) Diester: BQL
  Related substance (by HPLC) iii) Oxidized (RRT 1.37): 0.15 % w/w
  Related substance (by HPLC) iv) Any individual impurities: 0.02 % w/w
  Related substance (by HPLC) v) Total impurities: 0.26 % w/w
  Water by KF: 0.15 % w/w
[2]; [6]
  Description: White
  Related substance i) Diol: 0.05%
  Related substance ii) Diester: BQL
  Related substance iii) Oxidized (RRT 1.37): BQL
  Related substance iv) Any individual impurities: BQL
  Related substance v) Total impurities: 0.05%
  Water by KF: 0.15 % w/w
[2]; [7]
  Description: White
  Related substance (by HPLC) i) Diol: 0.07 % w/w
  Related substance (by HPLC) ii) Diester: BQL
  Related substance (by HPLC) iii) Oxidized (RRT 1.37): 0.17 % w/w
  Related substance (by HPLC) iv) Any individual impurities: 0.02 % w/w
  Related substance (by HPLC) v) Total impurities: 0.28 % w/w
  Water by KF: 0.12 % w/w
[2]; [8]
  Description: White
  Related substance i) Diol: 0.33%
  Related substance ii) Diester: 0.04%
  Related substance iii) Oxidized (RRT 1.37): 0.06%
  Related substance iv) Any individual impurities: 0.06%
  Related substance v) Total impurities: 0.59%
  Water by KF: 0.56 % w/w
[2]; [9]
  Description: White
  Related substance (by HPLC) i) Diol: 0.06 % w/w
  Related substance (by HPLC) ii) Diester: BQL
  Related substance (by HPLC) iii) Oxidized (RRT 1.37): 0.09 % w/w
  Related substance (by HPLC) iv) Any individual impurities: 0.03 % w/w
  Related substance (by HPLC) v) Total impurities: 0.21 % w/w
  Water by KF: 0.16 % w/w
[2]; [10]
  Description: White
  Related substance i) Diol: 0.06%
  Related substance ii) Diester: BQL
  Related substance iii) Oxidized (RRT 1.37): BQL
  Related substance iv) Any individual impurities: BQL
  Related substance v) Total impurities: 0.06%
  Water by KF: 0.16 % w/w
[2]; [11]
  Description: White
  Related substance i) Diol: 0.04%
  Related substance ii) Diester: BQL
  Related substance iii) Oxidized (RRT 1.37): BQL
  Related substance iv) Any individual impurities: BQL
  Related substance v) Total impurities: 0.04%
  Water by KF: 0.15 % w/w
[2]; [12]
  Description: White
  Related substance (by HPLC) i) Diol: 0.09 % w/w
  Related substance (by HPLC) ii) Diester: BQL
  Related substance (by HPLC) iii) Oxidized (RRT 1.37): 0.17 % w/w
  Related substance (by HPLC) iv) Any individual impurities: 0.02 % w/w
  Related substance (by HPLC) v) Total impurities: 0.26 % w/w
  Water by KF: 0.15 % w/w
[2]; [13]
  Description: White
  Related substance (by HPLC) i) Diol: 0.07 % w/w
  Related substance (by HPLC) ii) Diester: BQL
  Related substance (by HPLC) iii) Oxidized (RRT 1.37): 0.27 % w/w
  Related substance (by HPLC) iv) Any individual impurities: 0.04 % w/w
  Related substance (by HPLC) v) Total impurities: 0.49 % w/w
  Water by KF: 0.12 % w/w
[2]; [14]
  Description: White
  Related substance i) Diol: 0.5%
  Related substance ii) Diester: 0.05%
  Related substance iii) Oxidized (RRT 1.37): 0.05%
  Related substance iv) Any individual impurities: 0.07%
  Related substance v) Total impurities: 0.22%
  Water by KF: 0.2 % w/w
[2]; [15]
  Description: White
  Related substance (by HPLC) i) Diol: 0.06 % w/w
  Related substance (by HPLC) ii) Diester: 0.03 % w/w
  Related substance (by HPLC) iii) Oxidized (RRT 1.37): 0.08 % w/w
  Related substance (by HPLC) iv) Any individual impurities: 0.03 % w/w
  Related substance (by HPLC) v) Total impurities: 0.21 % w/w
  Water by KF: 0.16 % w/w
[2]; [16]
  Description: White
  Related substance i) Diol: 0.06%
  Related substance ii) Diester: BQL
  Related substance iii) Oxidized (RRT 1.37): BQL
  Related substance iv) Any individual impurities: BQL
  Related substance v) Total impurities: 0.06%
  Water by KF: 0.16 % w/w
[2]; [17]
  Description: White
  Related substance (by HPLC) i) Diol: 0.09 % w/w
  Related substance (by HPLC) ii) Diester: BQL
  Related substance (by HPLC) iii) Oxidized (RRT 1.37): 0.19 % w/w
  Related substance (by HPLC) iv) Any individual impurities: 0.02 % w/w
  Related substance (by HPLC) v) Total impurities: 0.26 % w/w
  Water by KF: 0.16 % w/w
[2]; [18]
  Description: White
  Related substance i) Diol: 0.06%
  Related substance ii) Diester: BQL
  Related substance iii) Oxidized (RRT 1.37): BQL
  Related substance iv) Any individual impurities: BQL
  Related substance v) Total impurities: 0.06%
  Water by KF: 0.16 % w/w
[2]; [19]
  Description: White
  Related substance (by HPLC) i) Diol: 0.07 % w/w
  Related substance (by HPLC) ii) Diester: BQL
  Related substance (by HPLC) iii) Oxidized (RRT 1.37): 0.29 % w/w
  Related substance (by HPLC) iv) Any individual impurities: 0.04 % w/w
  Related substance (by HPLC) v) Total impurities: 0.49 % w/w
  Water by KF: 0.12 % w/w
[2]; [20]
  Description: White
  Related substance i) Diol: 0.6%
  Related substance ii) Diester: 0.06%
  Related substance iii) Oxidized (RRT 1.37): 0.06%
  Related substance iv) Any individual impurities: 0.04%
  Related substance v) Total impurities: 0.22%
  Water by KF: 0.12 % w/w
[2]; [21]
  Description: White
  Related substance (by HPLC) i) Diol: 0.06 % w/w
  Related substance (by HPLC) ii) Diester: 0.02 % w/w
  Related substance (by HPLC) iii) Oxidized (RRT 1.37): 0.05 % w/w
  Related substance (by HPLC) iv) Any individual impurities: 0.02 % w/w
  Related substance (by HPLC) v) Total impurities: 0.15 % w/w
  Water by KF: 0.2 % w/w
[2]; [22]
  Description: White
  Related substance i) Diol: 0.1%
  Related substance ii) Diester: 0.05%
  Related substance iii) Oxidized (RRT 1.37): 0.06%
  Related substance iv) Any individual impurities: 0.02%
  Related substance v) Total impurities: 0.21%
  Water by KF: 0.33 % w/w
[2]; fesoterodine fumarate with higher particle size
  degradation of fesoterodine under stress conditions: significantly slow down the degradation
